Data as given in US5869448A, “Cyclic CS-1 peptidomimetics, compositions and methods of using same” (Cytel Corporation, priority 1995, dated 1999).
Positions of bridges follow the written chain, without caps; N, C: chain ends. Non-standard residues stand in square brackets, D forms with d. Residues, ends and D or L forms follow the SMILES beside them. No end group written: not given here. *: point of attachment. Pen = CC(C)(S)[C@H](N)C(=O)O; PhAc = O=C(Cc1ccccc1)*

target: T1, VLA-4/CS-1 (Homo sapiens, UniProt P05556+P13612); test: In vitro inhibition of binding of 51Cr-labeled Jurkat cells to solid phase-bound CS-1 peptide; type: cell-based; conditions: Table 1; normalized IC50, standard peptide of SEQ ID NO:6 = 1
T1 construct: inflammatory cells that contain the VLA-4 receptor [Jurkat cells; host or cells: Jurkat (human T lymphoblastic line)
T1 sequence (P13612 34-1032): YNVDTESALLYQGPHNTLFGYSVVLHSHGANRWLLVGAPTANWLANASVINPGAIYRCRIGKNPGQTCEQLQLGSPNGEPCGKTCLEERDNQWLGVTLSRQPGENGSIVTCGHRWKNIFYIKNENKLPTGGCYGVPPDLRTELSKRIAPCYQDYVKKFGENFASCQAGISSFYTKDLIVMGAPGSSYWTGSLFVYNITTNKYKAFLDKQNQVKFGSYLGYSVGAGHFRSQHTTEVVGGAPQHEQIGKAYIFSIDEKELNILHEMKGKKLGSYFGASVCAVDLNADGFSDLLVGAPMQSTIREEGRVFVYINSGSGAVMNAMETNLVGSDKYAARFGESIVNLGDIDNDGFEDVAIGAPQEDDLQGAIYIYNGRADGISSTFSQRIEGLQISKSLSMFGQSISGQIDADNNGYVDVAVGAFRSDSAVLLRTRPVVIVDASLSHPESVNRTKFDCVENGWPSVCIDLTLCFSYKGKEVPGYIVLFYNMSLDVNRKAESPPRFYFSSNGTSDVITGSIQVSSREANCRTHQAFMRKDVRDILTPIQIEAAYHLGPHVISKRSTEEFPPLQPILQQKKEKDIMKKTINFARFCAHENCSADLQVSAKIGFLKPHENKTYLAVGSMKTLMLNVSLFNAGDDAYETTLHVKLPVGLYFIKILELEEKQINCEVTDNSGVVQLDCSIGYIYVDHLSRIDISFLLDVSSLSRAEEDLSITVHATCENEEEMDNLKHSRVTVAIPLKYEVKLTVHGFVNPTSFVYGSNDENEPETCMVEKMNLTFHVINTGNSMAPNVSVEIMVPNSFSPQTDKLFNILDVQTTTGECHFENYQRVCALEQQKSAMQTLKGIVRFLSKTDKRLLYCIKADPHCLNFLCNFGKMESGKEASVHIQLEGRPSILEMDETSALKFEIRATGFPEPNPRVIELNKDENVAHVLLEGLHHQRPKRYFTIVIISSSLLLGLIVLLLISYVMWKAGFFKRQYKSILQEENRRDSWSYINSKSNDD
T1 sequence (P05556 21-798): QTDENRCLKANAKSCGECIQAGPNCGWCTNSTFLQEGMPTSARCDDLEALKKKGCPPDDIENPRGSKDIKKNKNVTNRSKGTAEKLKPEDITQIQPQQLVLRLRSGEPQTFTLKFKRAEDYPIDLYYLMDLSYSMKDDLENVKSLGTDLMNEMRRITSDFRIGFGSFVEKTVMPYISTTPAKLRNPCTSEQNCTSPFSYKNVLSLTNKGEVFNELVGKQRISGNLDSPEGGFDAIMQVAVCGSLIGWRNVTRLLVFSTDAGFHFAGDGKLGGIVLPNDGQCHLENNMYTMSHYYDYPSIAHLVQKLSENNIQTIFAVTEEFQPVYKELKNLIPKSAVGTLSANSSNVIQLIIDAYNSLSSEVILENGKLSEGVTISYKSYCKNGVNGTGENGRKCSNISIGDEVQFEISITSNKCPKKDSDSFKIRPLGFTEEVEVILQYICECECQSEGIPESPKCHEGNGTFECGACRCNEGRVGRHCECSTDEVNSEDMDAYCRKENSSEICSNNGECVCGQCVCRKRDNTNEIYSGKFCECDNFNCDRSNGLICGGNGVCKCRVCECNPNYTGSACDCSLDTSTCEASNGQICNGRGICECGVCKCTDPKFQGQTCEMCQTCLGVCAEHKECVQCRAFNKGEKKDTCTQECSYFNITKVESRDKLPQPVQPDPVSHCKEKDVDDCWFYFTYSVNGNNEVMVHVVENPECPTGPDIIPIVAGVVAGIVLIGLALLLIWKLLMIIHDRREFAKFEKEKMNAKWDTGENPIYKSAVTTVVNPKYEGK
Procedure: Binding inhibition is measured here as a concentration of peptide that inhibits one-half the binding between a standard number of Jurkat cells and a standard amount of CS-1 peptide bound to the surface of a microtiter plate well. Those concentrations are conveniently expressed as IC50 values, smaller numbers indicating a lower concentration required to inhibit 50 percent binding and therefore greater potency. Further specifics of this assay are provided hereinafter.
Jurkat cells (ATCC TIB 152), a human T lymphoblastic line, labeled with ^51 chromium were used to assay in vitro binding inhibition provided by various peptides discussed herein.
The plates were prepared as follows: The 25-mer CS-1 peptide (SEQ ID NO:5) dissolved at 0.5-1 μg/ml in a buffer of 0.1M NaHCO3 at pH 9.5 that also contained 10 μg/ml of bovine serum albumin (BSA) or a conjugate of the CS-1 peptide linked to ovalbumin (CS-1-OVA) dissolved at 1-2.5 μg/ml in the same buffer was used as the substrate. Each well of the microtiter plates was coated with 50 μl of substrate or buffer alone for controls. The wells were permitted to dry out completely and were then rinsed twice with PBS at pH 7.4. Non-specific binding sites of each well were then blocked using 200 μl per well of RPMI/1 percent BSA for two hours at room temperature. Both solid phase-affixed substrates provided similar results.
Jurkat cells (3-5×10^6 cells) were placed into a 15 ml FALCON™ round-bottom tube with a cap. The tube was centrifuged, and the extra medium was then removed.
Two hundred microliters of a ^51 Cr labeling solution were added to the centrifuged cells and maintained in contact with the cells for 90-120 minutes in a warm room. This procedure typically provides about 50,000-100,000 cpm/well with about 80-100 percent cell viability. Longer contact times provide a greater amount of labeling but lower cell viability.
The labeled cells were washed with (i) complete medium, (ii) 1 mM EDTA/PBS and then (iii) RPM1/1 percent BSA free of serum components. The cells were centrifuged after each washing. The cells were finally resuspended in serum-free RPMI/1 percent BSA at a concentration of 1×10^6 viable cells/ml, which provides a concentration that is diluted by one-half in the assay.
Cyclic inhibitor peptides were prepared as stock solutions at 20 mg/ml in DMSO in 1.5 ml cryogenic screwcap vials, and were stored at -70° C. Using FLOW™ round-bottom or V-bottom microtiter plates, the inhibitor peptides were prepared at twice the assay concentration in RPMI/1 percent BSA at 60 μl/well.
Four initial dilutions were typically used.
The ^51 Cr-labeled cells (1×10^6 cells at 60 μl/well) were then admixed with the diluted cyclic peptide solutions. The admixtures were maintained at room temperature (about 22° C.) for 30 minutes.
One hundred microliters of each inhibitor peptide/cell admixture were transferred to the substrate-coated wells. This was done in triplicate for each dilution. The resulting plates were incubated for 30 minutes at 37° C. and then washed gently three times with RPMI/1 percent BSA at 200 μl/well. Binding was observed microscopically, particularly after the second wash.
The bound cells were then lysed by the addition of a 0.5 percent solution of sodium dodecylsulfate in water at 100 μl/well. The resulting solutions were then processed for counting and calculation of IC50 values following usual procedures. Appropriate positive and negative controls were used with each plate so that the results of separate assays could be normalized and compared.
The potency data of Table 1 and Table 2 are so normalized. The absolute IC50 value for the peptide of SEQ ID NO:7 is 0.3 μM.

Relative Potency	Molecule
9	CC(C)C[C@@H]1NC(=O)[C@H](Cc2ccccc2)NC(=O)[C@H](CCC(=O)O)NC(=O)[C@@H]2CCCN2C(=O)CNC(=O)[C@@H](N)CSSC[C@@H](C(N)=O)NC(=O)[C@H](Cc2ccccc2)NC(=O)[C@H](CC(=O)O)NC1=O [compound 23] (H-CGPEFLDFC-NH2; disulfide 1-9)
1	CC(C)C[C@@H]1NC(=O)[C@@H](N)CSSC[C@@H](C(N)=O)NC(=O)[C@H](Cc2ccccc2)NC(=O)[C@H](CC(=O)O)NC1=O [compound 28] (H-CLDFC-NH2; disulfide 1-5)
16	O=C(O)C[C@@H]1NC(=O)[C@@H](NC(=O)Cc2ccccc2)CSCCNC(=O)[C@H](Cc2ccccc2)NC1=O [.phi.AcCDF--NHCH2 CH2 --]
41	CC(=O)N[C@@H](Cc1ccccc1)C(=O)N[C@@H](CS)C(=O)N[C@@H](CC(=O)O)C(=O)N[C@@H](Cc1ccccc1)C(=O)N[C@@H](CS)C(N)=O [compound 18] (Ac-FCDFC-NH2)
< 1	CC(=O)N[C@@H](CC(C)C)C(=O)N[C@@H](CC(=O)O)C(=O)N[C@@H](Cc1ccccc1)C(N)=O [AcLDF--NH2] (Ac-Leu-Asp-Phe-NH2)
< 1	NC(=O)[C@@H]1CCCN1C(=O)[C@@H]1CSSC[C@H](NC(=O)[C@@H](N)Cc2ccccc2)C(=O)N[C@@H](CC(=O)O)C(=O)N1 [compound 30] (H-FCDCP-NH2; disulfide 2-4)
19	CC(C)C[C@@H]1NC(=O)[C@H](Cc2ccccc2)NC(=O)[C@H](CCC(=O)O)NC(=O)[C@@H](N)CSSC[C@@H](C(N)=O)NC(=O)[C@@H]2CCCN2C(=O)[C@H](Cc2ccccc2)NC(=O)[C@H](CC(=O)O)NC1=O [compound 20] (H-CEFLDFPC-NH2; disulfide 1-8)
0	CC(C)C[C@H](N)C(=O)N[C@@H](CC(=O)O)C(=O)N[C@@H](Cc1ccccc1)C(N)=O [LDF--NH2] (H-Leu-Asp-Phe-NH2)
3	NC(=O)[C@@H]1CSSC[C@H](NC(=O)[C@@H](N)Cc2ccccc2)C(=O)N[C@@H](CC(=O)O)C(=O)N[C@@H](Cc2ccccc2)C(=O)N1 [compound 25] (H-FCDFC-NH2; disulfide 2-5)
2	ILDVPILDVP-NH2 [compound 26]
94	CC1(C)SSC[C@@H](C(N)=O)NC(=O)[C@H](Cc2ccccc2)NC(=O)[C@H](CC(=O)O)NC(=O)[C@H]1NC(=O)Cc1ccccc1 [compound 14] (PhAc-[Pen]DFC-NH2; disulfide 1-4)
19	CC(C)C[C@@H]1NC(=O)[C@H](Cc2ccccc2)NC(=O)[C@@H](N)CSSC[C@@H](C(N)=O)NC(=O)[C@H](C(C)C)NC(=O)[C@H]([C@@H](C)O)NC(=O)[C@H](CO)NC(=O)[C@@H]2CCCN2C(=O)[C@H](Cc2ccccc2)NC(=O)[C@H](CC(=O)O)NC1=O [compound 21] (H-CFLDFPSTVC-NH2; disulfide 1-10)
2	ILDFP-NH2 [compound 27]
6	CC(C)C[C@@H]1NC(=O)[C@H](Cc2ccccc2)NC(=O)[C@H](CCC(=O)O)NC(=O)[C@@H](N)CSSC[C@@H](C(N)=O)NC(=O)[C@H](CO)NC(=O)[C@@H]2CCCN2C(=O)[C@H](Cc2ccccc2)NC(=O)[C@H](CC(=O)O)NC1=O [compound 24] (H-CEFLDFPSC-NH2; disulfide 1-9)
6	CC(C)C[C@@H]1NC(=O)[C@H](Cc2ccccc2)NC(=O)[C@H](CCC(=O)O)NC(=O)[C@@H]2CCCN2C(=O)[C@@H](N)CSSC[C@@H](C(N)=O)NC(=O)[C@H](CO)NC(=O)[C@@H]2CCCN2C(=O)[C@H](Cc2ccccc2)NC(=O)[C@H](CC(=O)O)NC1=O [compound 19] (H-CPEFLDFPSC-NH2; disulfide 1-10)
9	CC(C)C[C@@H]1NC(=O)[C@H](Cc2ccccc2)NC(=O)[C@H](CCC(=O)O)NC(=O)[C@@H](N)CSSC[C@@H](C(N)=O)NC(=O)[C@H]([C@@H](C)O)NC(=O)[C@H](CO)NC(=O)[C@@H]2CCCN2C(=O)[C@H](Cc2ccccc2)NC(=O)[C@H](CC(=O)O)NC1=O [compound 22] (H-CEFLDFPSTC-NH2; disulfide 1-10)
31	CC(C)C[C@@H]1NC(=O)[C@H](CCC(=O)O)NC(=O)[C@@H]2CCCN2C(=O)[C@@H](N)CSSC[C@@H](C(N)=O)NC(=O)[C@H](CO)NC(=O)[C@@H]2CCCN2C(=O)[C@H](Cc2ccccc2)NC(=O)[C@H](CC(=O)O)NC1=O [compound 33] (H-CPELDFPSC-NH2; disulfide 1-9)
53	CC(=O)N[C@@H](Cc1ccccc1)C(=O)N[C@H]1CSSC[C@@H](C(N)=O)NC(=O)[C@H](Cc2ccccc2)NC(=O)[C@H](CC(=O)O)NC1=O [compound 17] (Ac-FCDFC-NH2; disulfide 2-5)
< 1	SFDFS-NH2 [compound 31]
81	CC(C)C[C@@H]1NC(=O)[C@H](Cc2ccccc2)NC(=O)[C@@H](N)CSSC[C@@H](C(N)=O)NC(=O)[C@H]([C@@H](C)O)NC(=O)[C@H](CO)NC(=O)[C@@H]2CCCN2C(=O)[C@H](Cc2ccccc2)NC(=O)[C@H](CC(=O)O)NC1=O [compound 15] (H-CFLDFPSTC-NH2; disulfide 1-9)
31	CC(C)C[C@@H]1NC(=O)[C@H](Cc2ccccc2)NC(=O)[C@H](CCC(=O)O)NC(=O)[C@@H]2CCCN2C(=O)[C@@H](N)CSSC[C@@H](C(N)=O)NC(=O)[C@@H]2CCCN2C(=O)[C@H](Cc2ccccc2)NC(=O)[C@H](CC(=O)O)NC1=O [compound 16] (H-CPEFLDFPC-NH2; disulfide 1-9)
0	CC(C)C[C@H](N)C(=O)N[C@@H](CC(=O)O)C(=O)N[C@H](C(N)=O)C(C)C [LDV--NH2, reference compound] (H-Leu-Asp-Val-NH2)
1	CC(=O)N[C@@H](Cc1ccccc1)C(=O)N[C@H]1CSSC[C@@H](C(=O)N2CCC[C@H]2C(N)=O)NC(=O)[C@H](CC(=O)O)NC1=O [compound 29] (Ac-FCDCP-NH2; disulfide 2-4)

Molecule	Relative Potency
NC(=O)[C@@H]1CSSC[C@H](NC(=O)Cc2ccccc2)C(=O)N[C@@H](CC(=O)O)C(=O)N[C@@H](Cc2ccccc2)C(=O)N1 [compound 7] (PhAc-CDFC-NH2; disulfide 1-4)	954

same assay, conditions: Table 2; normalized, relative to standard peptide of SEQ ID NO:6

Relative Potency	Molecule
0	CC(=O)N[C@H]1CSSC[C@@H](C(=O)N2CCC[C@@H]2C(N)=O)NC(=O)[C@H](CC(=O)O)NC(=O)[C@H](CC(C)C)NC1=O (Ac-CLDC[dP]-NH2; disulfide 1-4)
16.1	O=C(O)C[C@@H]1NC(=O)[C@@H](NC(=O)Cc2ccccc2)CSCCNC(=O)[C@H](Cc2ccccc2)NC1=O [.phi.AcCDF--NHCH2 CH2 --]
.91	CC(=O)N[C@H]1CSSC[C@@H](C(N)=O)NC(=O)[C@H](Cc2ccccc2)NC(=O)[C@H](CC(=O)O)NC(=O)[C@H](CC(C)C)NC1=O (Ac-CLDFC-NH2; disulfide 1-5)
81.4	CC(C)C[C@@H]1NC(=O)[C@H](Cc2ccccc2)NC(=O)[C@@H](N)CSSC[C@@H](C(N)=O)NC(=O)[C@H]([C@@H](C)O)NC(=O)[C@H](CO)NC(=O)[C@@H]2CCCN2C(=O)[C@H](Cc2ccccc2)NC(=O)[C@H](CC(=O)O)NC1=O [SEQ ID NO:15, CFLDFPSTC--NH2] (H-CFLDFPSTC-NH2; disulfide 1-9)
56.3	CC(C)C[C@@H]1NC(=O)[C@H](Cc2ccccc2)NC(=O)[C@H](CCC(=O)O)NC(=O)[C@@H]2CCCN2C(=O)[C@@H](N)CSSC[C@@H](C(N)=O)NC(=O)[C@H](Cc2ccccc2)NC(=O)[C@H](CC(=O)O)NC1=O (H-CPEFLDFC-NH2; disulfide 1-8)

same assay, conditions: XLDFp = 1

CS-1 binding inhibition potencies relative to each other	Molecule
~1	CC(C)C[C@H](NC(=O)Cc1ccccc1)C(=O)N[C@@H](CC(=O)O)C(=O)N[C@@H](Cc1ccccc1)C(=O)N1CCC[C@@H]1C(N)=O [XLDFp, .phi.Ac-LeuAspPhe-D-Pro-NH2, reference compound] (PhAc-LDF[dP]-NH2)

same assay, conditions: times more potent than standard 10-mer

inhibition potency relative to the Standard 10-mer of SEQ ID NO:6	Molecule
~313	CC(C)C[C@H](NC(=O)Cc1ccccc1)C(=O)N[C@@H](CC(=O)O)C(=O)N[C@@H](Cc1ccccc1)C(=O)N1CCC[C@@H]1C(N)=O [XLDFp, .phi.Ac-LeuAspPhe-D-Pro-NH2, reference compound] (PhAc-LDF[dP]-NH2)
zero	CC(C)C[C@H](N)C(=O)N[C@@H](CC(=O)O)C(=O)N[C@H](C(N)=O)C(C)C [LDV--NH2, reference compound] (H-Leu-Asp-Val-NH2)
